Measured values reported in article PMC5577615, “Myticalins: A Novel Multigenic Family of Linear, Cationic Antimicrobial Peptides from Marine Mussels (Mytilus spp.)” (Marine Drugs, 2017).
Where no end group is shown, it is not given here.

Key:
Type in all cases: cell-based
[1] = test system: tested bacterial strains (Gram-positive and Gram-negative); conditions: for antimicrobial activity / spectrum in words: tested Gram-positive and Gram-negative strains
Procedure: (§1) The following strains have been used in this study: Escherichia coli ATCC 25922, Staphylococcus aureus ATCC […], Vibrio anguillarum ATCC 43305, Pseudomonas aeruginosa ATCC 27853, Acinetobacter baumannii ATCC 19606, Bacillus subtilis ATCC 6051. Vibrio anguillarum ATCC 43305 was cultivated in tryptic soy broth (TSB, Becton Dickinson, Milan, Italy) implemented with 2% NaCl, all the other strains were grown in Müller-Hinton broth (MH, Becton Dickinson, Milan, Italy).
(§2) The minimum inhibiting concentration (MIC) of each myticalin synthetic peptide was calculated using the broth microdilution method. Briefly, twofold serial dilutions of each peptide were prepared in appropriate growth medium and aliquoted in the wells of a round-bottom microtiter plates (Sarstedt, Nümbrecht, Germany). An overnight culture of each bacterial strain was diluted 1:50 in fresh growth medium and grown to an OD600nm ≈ 0.3. Each well was then inoculated with a standardized inoculum in order to achieve, in a final total volume of 100 μL, a final test concentration of about 5 × 10^5 CFU/mL. The plate was then sealed to minimize evaporation and incubated at 37 °C for 24 h. The day after, the MIC was identified as the lowest concentration of the peptide that impaired any visible bacterial growth.

[2] = test system: Escherichia coli ATCC 25922; assay: MIC, broth microdilution
Procedure: as §1, §2

[3] = test system: Acinetobacter baumannii ATCC 19606; assay: MIC, broth microdilution
Procedure: as §1, §2

[4] = test system: Pseudomonas aeruginosa ATCC 27853; assay: MIC, broth microdilution
Procedure: as §1, §2

[5] = test system: Vibrio anguillarum ATCC 43305; assay: MIC, broth microdilution
Procedure: as §1, §2

[6] = test system: Bacillus subtilis ATCC 6051; assay: MIC, broth microdilution
Procedure: as §1, §2

[7] = test system: Staphylococcus aureus ATCC 25923; assay: MIC, broth microdilution
Procedure: as §1, §2

[8] = Escherichia coli ATCC 25922, Müller-Hinton broth, about 5 × 10^5 CFU/mL, 37 °C, 24 h, mode of four independent experiments
[9] = Acinetobacter baumannii ATCC 19606, Müller-Hinton broth, about 5 × 10^5 CFU/mL, 37 °C, 24 h, mode of four independent experiments
[10] = Pseudomonas aeruginosa ATCC 27853, Müller-Hinton broth, about 5 × 10^5 CFU/mL, 37 °C, 24 h, mode of four independent experiments
[11] = Vibrio anguillarum ATCC 43305, tryptic soy broth with 2% NaCl, about 5 × 10^5 CFU/mL, 37 °C, 24 h, mode of four independent experiments
[12] = Bacillus subtilis ATCC 6051, Müller-Hinton broth, about 5 × 10^5 CFU/mL, 37 °C, 24 h, mode of four independent experiments
[13] = Staphylococcus aureus ATCC 25923, Müller-Hinton broth, about 5 × 10^5 CFU/mL, 37 °C, 24 h, mode of four independent experiments

Substance | antimicrobial activity / spectrum in words [1] | Minimal inhibitory concentration (MIC) ([2]; ATCC 25922, 24 h) | Minimal inhibitory concentration (MIC) ([3]; ATCC 19606, 24 h) | Minimal inhibitory concentration (MIC) ([4]; ATCC 27853, 24 h) | Minimal inhibitory concentration (MIC) ([5]; ATCC 43305, 24 h) | Minimal inhibitory concentration (MIC) ([6]; ATCC 6051, 24 h) | Minimal inhibitory concentration (MIC) ([7]; ATCC 25923, 24 h) | MIC toward all the tested bacterial strains ([1]; 24 h) | Minimal inhibitory concentration (MIC) [2, 8] | Minimal inhibitory concentration (MIC) [3, 9] | Minimal inhibitory concentration (MIC) [4, 10] | Minimal inhibitory concentration (MIC) [5, 11] | Minimal inhibitory concentration (MIC) [6, 12] | Minimal inhibitory concentration (MIC) [7, 13]
LRWTPTPSYPRYPTRSRGSRWSR-NH2 [Myticalin B1] | moderate antimicrobial activity | 8 to 16 µM | 8 µM | >32 µM | >32 µM | 32 µM | >32 µM |  |  |  |  |  |  | 
RRRRRFRRVIRRIRLPKYLTINTE [Myticalin C6] | moderate antimicrobial activity | 4 µM | 2 µM | 32 µM | >32 µM | 32 µM | 8 µM |  |  |  |  |  |  | 
RRRRRYRYWRRGLTIQGRPKSLPLNTGD [Myticalin C9] | broad spectrum of activity | 4 µM | 2 µM | 8 µM | >32 µM | 4 µM | 2 µM |  |  |  |  |  |  | 
WGRRWRIRIPRLPRPWPPRPKWPRSATINTDQ [Myticalin D2] | broad spectrum of activity | 4 µM | 2 µM | 4 µM | >32 µM | 2 µM | 16 to 32 µM |  |  |  |  |  |  | 
WPRFPKPRKPTYPGPTYPGPTWPRPTWRRSATIDTEH [Myticalin D5] |  | >32 µM | >32 µM | >32 µM | >32 µM | >32 µM | >32 µM | > 32 µM |  |  |  |  |  | 
YSWPRMPRIPRLPRYPRYPRYPRWPRHPTIYA-NH2 [Myticalin A8] | broad spectrum of activity |  |  |  |  |  |  |  | 1 µM | 1 µM | 8 µM | >32 µM | 4 µM | 16 µM
YSWPRMPRIPRLPRYPRYPRYPRWPRWPRQPTIYA-NH2 [Myticalin A5] |  |  |  |  |  |  |  |  | 2 µM | 4 µM | 4 to 8 µM | >32 µM | 4 µM | 8 to 16 µM
